Publication PMC6922598, “De novo design of a homo-trimeric amantadine-binding protein” (eLife, 2019)

Biological target: T1, ABP (amantadine-binding protein)
T1 construct: de novo designed homo-trimer; GSHMG//[…]
Assay: X-ray crystal structure ([…] Å) and neutron structure ([…] Å) of the complex; NMR titration with TITAN line shape fitting (Kd)
Parameters: species or system synthetic construct

`NC12CC3CC(CC(C3)C1)C2` [amantadine] showed a Kd of 24.1 ± 2.7 µM.
